Measurements: patent US10507247B2, “Optical probes for matrix metalloproteinases” (The University Court of the University of Edinburgh, priority 2015, dated 2019)
Primed or numbered codes have the meaning given here. Where no end group is shown, it is not given here. [ ]: non-standard residue; d: D form. The star is where a group is joined. 5FAM = O=C1OC2(c3ccc(O)cc3Oc3cc(O)ccc32)c2ccc(C(=O)*)cc21; MethylRed = CN(C)c1ccc(/N=N/c2ccccc2C(=O)*)cc1; PEG2′ = PEG spacer unit (glycol linker); Nle = CCCC[C@H](N)C(=O)O; Ahx = NCCCCCC(=O)O; βAla = NCCC(=O)O

How the values were obtained:
MMP = test: Activation of probe variants by MMP in vitro; format: biochemical
Protocol: The selectivity of the probes, together with further probes AMF-14b, SVC-030 (both defined in Table 6 below) and SVC-068 (defined in Table 4 below), to detect MMP over elastase, another proteinase relevant in lung disease, was tested and the results for all probes are shown in FIG. 2.
Variants consisting of D-amino acids at the recognition site sequence with or without blocking PEG units were also synthesised and assessed.
(§1) The enzyme assays were run in a 384-well format on a PCR opaque microplate (Thermo Scientific). All dilutions and reactions were prepared in MMP buffer (50 mM Tris, 10 mM CaCl2, 0.15M NaCl, 0.05% Brij-35, pH 7). Proteolytic activity was determined by calculating the fold change in fluorescence over background signal provided by the corresponding dilution of the probe and/or inhibitors with exogenous enzymes using a-multiwell plate fluorimeter (Synergy H1 Hybrid Reader, BioTek instruments Ltd) at excitation/emission 485/528 nm. Recombinant human MMPs (Catalytic domain MMP-1, -2, -3, -7, -8, -9, -10, -11, -12, -13 (Enzo Life Sciences) and Full-length MMP-2, -9, -12 and -13 (Merck/Millipore)) were used at 30 nM. Pro-MMP-13 (R & D Systems) was activated by incubating with 1 mM 4-aminophenylmercunc acetate (APMA) for 2 hrs at 37° C. Human neutrophil elastase (Elastase Product Company, used at 2.5 ug/ml), neutrophil lysate (lysed human neutrophils), and recombinant human Thrombin (Sigma-Aldrich, used at 5 U/ml), Plasmin (Sigma-Aldrich, used at 30 nM) and Factor Xa (Sigma-Aldrich, used at 0.5 μM) were used to identify the lead molecular probe sequences. For inhibition assays, enzyme and inhibitor were pre-incubated for 1 hr at 37° C. before the addition of molecular probe.

MMP-13 [1] = test: Enzyme assay, fold change in probe fluorescence over background with MMP-13; format: biochemical, human; details: different probe scaffolds (monomer, dendrimers); MMP-13 52 kDa
Protocol: (§2) Enzyme specificity of the lead probes with exogenous enzymes was tested using a multiwell plate fluorimeter at excitation/emission 485/528 nm (Table 3). Recombinant human catalytic domain MMPs-1, -2, -3, -7, -8, -9, -10, -11, -12, -13 were used at 30 nM. Cleavage site for each sequence is indicated in italics.
(§3) The different compounds were also evaluated according to the fold change in fluorescent signal in presence of MMP-9 and MMP-13, and the results are shown in Table 7. From this comparison, the FRET dendrimers comprising SEQ ID NO.1 and SEQ ID NO.7 (AMF-106 and SVC-186) together with the 9Dendrimer comprising SEQ ID NO.7 (SVC-196) were chosen for further evaluation. These dendrimers are shown in FIG. 7, probe A (AMF-106), probe B (SVC-186) and probe C (SVC-196).
as §1

MMP-9 = test: Enzyme assay, fold change in probe fluorescence over background with MMP-9; format: biochemical, human; details: for MMP-9 (83 kDa), fold change in fluorescent signal: different probe scaffolds (monomer, dendrimers); for MMP-9 (39.0 kDa), fold change in fluorescence over background: FRET monomers, recombinant human catalytic domain MMP at 30 nM, ex/em 485/528 nm
Protocol: A library of probes (listed in Table 2 below) containing FAM (Carboxyfluorescein) as the fluorophore (donor) and MethylRed (MR) as the quencher (acceptor) and a variety of peptide sequences was synthesized by manual standard solid-phase Fmoc peptide chemistry (described below).
as §2, §3, §1

[2] = tested on: MMPs-1, -2, -3, -7, -8, -9, -10, -11, -12, -13, Thrombin, Plasmin and Factor Xa; test: Enzyme specificity of the FRET branched probes with exogenous enzymes (FIG. 8); format: biochemical, human; details: probe 10 μM
Protocol: FIG. 8. Enzyme specificity of the FRET branched probes A, B and C. Data represents the average fold change in fluorescence over background signal provided by probe (10 μM) with exogenous enzymes using a multiwell plate fluorimeter (Synergy H1 Hybrid Reader, BioTek instruments Ltd) at excitation/emission 485/528 nm. Recombinant human catalytic domain MMPs-1, -2, -3, -7, -8, -9, -10, -11, -12, -13 were used at 30 nM. Recombinant human Thrombin, Plasmin and Factor Xa were used at 5 U/ml, 30 nM, 0.5 μM, respectively.
Three selected probes (A: AMF-106, B: SVC-186 B, and C: SVC-196) were evaluated in vitro in a new experiment including other members of the MMP family (MMPs-1, -2, -3, -7, -8, -9, -10, -11, -12, -13) as well as Thrombin, Plasmin and Factor Xa, and the results are shown in FIG. 8. […] The plasmin cleavage site was identified and attempts to make a resistant version replacing with D-aa in these positions were unsuccessful.
as §1

MMP-12 = target: T1, MMP-12 (Homo sapiens, UniProt P39900); test: Enzyme assay, fold change in probe fluorescence over background with MMP-12; format: biochemical; details: FRET monomers; recombinant human catalytic domain MMP at 30 nM; ex/em 485/528 nm
T1 construct: Recombinant human catalytic domain MMPs-1, -2, -3, -7, -8, -9, -10, -11, -12, -13 were used at 30 nM; purchased Enzo Life Sciences
Protocol: as §2, §1

MMP-2 = test: Enzyme assay, fold change in probe fluorescence over background with MMP-2; format: biochemical; details: FRET monomers; recombinant human catalytic domain MMP at 30 nM; ex/em 485/528 nm
Protocol: as §2, §1

Thrombin = target: T2, Thrombin (Homo sapiens, UniProt P00734); test: Enzyme assay, fold change in probe fluorescence with Thrombin; format: biochemical; details: recombinant human Thrombin 5 U/ml; ex/em 485/528 nm
T2 construct: purchased Sigma-Aldrich
Protocol: as §2, §1

MMP-13 [3] = target: MMP-13 (Homo sapiens, UniProt P45452); test: Enzyme assay, fold change in probe fluorescence over background with MMP-13; format: biochemical; parameters: purchased Enzo Life Sciences (catalytic domain); Merck/Millipore (full-length); details: FRET monomers; recombinant human catalytic domain MMP at 30 nM; ex/em 485/528 nm
Protocol: as §2, §3, §1

T1 sequence (P39900 106-263 limits assumed): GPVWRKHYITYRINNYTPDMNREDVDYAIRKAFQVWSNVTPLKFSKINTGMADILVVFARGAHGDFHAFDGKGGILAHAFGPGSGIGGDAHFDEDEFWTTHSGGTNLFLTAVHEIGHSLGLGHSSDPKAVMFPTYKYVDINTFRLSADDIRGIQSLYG
MMP-2, sequence (P08253 with tags, fused parts or gaps DEL222-396 limits assumed): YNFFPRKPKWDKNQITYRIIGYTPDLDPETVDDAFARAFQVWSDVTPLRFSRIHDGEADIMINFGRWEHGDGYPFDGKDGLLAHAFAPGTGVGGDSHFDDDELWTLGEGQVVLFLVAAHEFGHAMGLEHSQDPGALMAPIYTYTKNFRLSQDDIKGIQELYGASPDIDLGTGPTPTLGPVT

Ac-PEG2-PFGNleKβA-K[K(FAM)2]-PEG2-k-PEG2-k-3 probe elements [SVC-01-198]
intensity upon activation by MMP (MMP): much lower intensity

FAM-Ahx-G-P-K-G-L-K-G-3 probe elements ({5FAM-Ahx}-GPKGLKG; also: three probe elements on a scaffold) [TWB140]
MMP-13 (52 kDa), fold change in fluorescent signal (MMP-13 [1]): 1.47 | MMP-9 (83 kDa), fold change in fluorescent signal (MMP-9): 1.06

FAM-K(FAM)-PEG2-PFGNleKβA-K(FAM)-PEG2-k-PEG2-k-3 probe elements ({5FAM-K(FAM)-PEG2′}-PFG[Nle]K[βAla]-{K(FAM)-PEG2′-code k-PEG2′-code k}; also: three probe elements on a scaffold) [SVC-196]
MMP-13 (52 kDa), fold change in fluorescent signal (MMP-13 [1]): 11.80 | signal-to-noise (fold change above the background) [2]: lower signal-to-noise | selectivity for MMP-2/9 ([2]; MMPs 30 nM, Thrombin 5 U/ml, Plasmin 30 nM, Factor Xa 0.5 μM): poor selectivity | MMP-9 (83 kDa), fold change in fluorescent signal (MMP-9): 3.33

FAM-K(FAM)-PEG2-PFGNleKβA-PEG2-k-PEG2-k-3 probe elements [SVC-189]
MMP-13 (52 kDa), fold change in fluorescent signal (MMP-13 [1]): 7.11 | MMP-9 (83 kDa), fold change in fluorescent signal (MMP-9): 2.92

FAM-PEG2-G-P-K-G-I-K-G-K(MR)-NH2 ({5FAM-PEG2′}-GPKGIKGK(MethylRed)-NH2) [SVC-26]
MMP-12 (20.3 kDa), fold change in fluorescence over background (MMP-12): 1.54 | MMP-2 (20.3 kDa), fold change in fluorescence over background (MMP-2): 2.10 | MMP-9 (39.0 kDa), fold change in fluorescence over background (MMP-9): 4.22 | Inflammatory mediators: Thrombin, fold change in fluorescence over background (Thrombin): 1.37 | MMP-13 (20.4 kDa), fold change in fluorescence over background (MMP-13 [3]): 9.33

FAM-PEG2-G-P-K-G-L-K-G-K(MR)-NH2 [SVC-24]
MMP-12 (20.3 kDa), fold change in fluorescence over background (MMP-12): 2.34 | MMP-2 (20.3 kDa), fold change in fluorescence over background (MMP-2): 1.98 | MMP-9 (39.0 kDa), fold change in fluorescence over background (MMP-9): 3.50 | Inflammatory mediators: Thrombin, fold change in fluorescence over background (Thrombin): 1.31 | MMP-13 (20.4 kDa), fold change in fluorescence over background (MMP-13 [3]): 9.30

FAM-PEG2-G-P-K-G-Nle-K-G-K(MR)-NH2 [SVC-27]
MMP-12 (20.3 kDa), fold change in fluorescence over background (MMP-12): 1.46 | MMP-2 (20.3 kDa), fold change in fluorescence over background (MMP-2): 2.70 | MMP-9 (39.0 kDa), fold change in fluorescence over background (MMP-9): 4.53 | Inflammatory mediators: Thrombin, fold change in fluorescence over background (Thrombin): 1.48 | MMP-13 (20.4 kDa), fold change in fluorescence over background (MMP-13 [3]): 11.75

FAM-PEG2-P-Cha-G-M-F-G-K(MR)-NH2 [SVC-15]
MMP-12 (20.3 kDa), fold change in fluorescence over background (MMP-12): 2.45 | MMP-2 (20.3 kDa), fold change in fluorescence over background (MMP-2): 3.27 | MMP-9 (39.0 kDa), fold change in fluorescence over background (MMP-9): 5.89 | Inflammatory mediators: Thrombin, fold change in fluorescence over background (Thrombin): 0.94 | MMP-13 (20.4 kDa), fold change in fluorescence over background (MMP-13 [3]): 11.75

FAM-PEG2-P-Cha-G-M-H-G-K(MR)-NH2 [SVC-21]
MMP-12 (20.3 kDa), fold change in fluorescence over background (MMP-12): 3.05 | MMP-2 (20.3 kDa), fold change in fluorescence over background (MMP-2): 4.01 | MMP-9 (39.0 kDa), fold change in fluorescence over background (MMP-9): 7.53 | Inflammatory mediators: Thrombin, fold change in fluorescence over background (Thrombin): 0.97 | MMP-13 (20.4 kDa), fold change in fluorescence over background (MMP-13 [3]): 12.93

FAM-PEG2-P-Cha-G-M-K-G-K(MR)-NH2 [SVC-22]
MMP-12 (20.3 kDa), fold change in fluorescence over background (MMP-12): 2.61 | MMP-2 (20.3 kDa), fold change in fluorescence over background (MMP-2): 4.24 | MMP-9 (39.0 kDa), fold change in fluorescence over background (MMP-9): 8.21 | Inflammatory mediators: Thrombin, fold change in fluorescence over background (Thrombin): 1.02 | MMP-13 (20.4 kDa), fold change in fluorescence over background (MMP-13 [3]): 14.88

FAM-PEG2-P-Cha-G-M-K-βA-K(MR)-NH2 [SVC-20]
MMP-12 (20.3 kDa), fold change in fluorescence over background (MMP-12): 3.21 | MMP-2 (20.3 kDa), fold change in fluorescence over background (MMP-2): 5.22 | MMP-9 (39.0 kDa), fold change in fluorescence over background (MMP-9): 9.61 | Inflammatory mediators: Thrombin, fold change in fluorescence over background (Thrombin): 1.00 | MMP-13 (20.4 kDa), fold change in fluorescence over background (MMP-13 [3]): 15.9
